Like-named read-outs stand apart in the source and are kept apart here.
Experiments:
[1] = target: T1, ROCK1 (Homo sapiens, UniProt Q13464); experiment: Binding (KINOMEscan) ROCK1 Inhibitor; details: for IC50: read-out: RC50, result type IC50; for Emax: read-out: Max response
T1 construct: purchased Eurofins DiscoverX Corporation 87-1003DR; host or cells: E. coli BL21-derived host (T7 phage) or HEK-293
Method: For most assays, kinase-tagged T7 phage strains were grown in parallel in 24-well blocks in an E. coli host derived from the BL21 strain. E. coli were grown to log-phase and infected with T7 phage from a frozen stock (multiplicity of infection=0.4) and incubated with shaking at 32° C. until lysis (90-150 min). The lysates were centrifuged (6,000×g) and filtered (0.2 μm) to remove cell debris. The remaining kinases were produced in HEK-293 cells and subsequently tagged with DNA for qPCR detection. Streptavidin-coated magnetic beads were treated with biotinylated small molecule ligands for 30 min at RT to generate affinity resins for kinase assays. The liganded beads were blocked with excess biotin and washed with blocking buffer (SeaBlock (Pierce), 1% BSA, 0.05% Tween 20, 1 mM DTT) to remove unbound ligand and to reduce non-specific phage binding. […] All reactions were performed in polypropylene 384-well plates in a final volume of 0.02 mL. […] The beads were then re-suspended in elution buffer (1×PBS, 0.05% Tween 20, 0.5 μM non-biotinylated affinity ligand) and incubated at RT with shaking for 30 min. The kinase concentration in the eluates was measured by qPCR.
The kinase concentration in the eluates was measured by qPCR. qPCR reactions were assembled by adding 2.5 μL of kinase eluate to 7.5 μL of qPCR master mix containing 0.15 μM amplicon primers and 0.15 μM amplicon probe. The qPCR protocol consisted of a 10 min hot start at 95° C., followed by 35 cycles of 95° C. for 15 sec, 60° C. for 1 min.
Binding constants (Kds) were calculated with a standard dose-response curve using the Hill equation: […]

[2] = target: HRH2 (Homo sapiens, UniProt P25021); experiment: cAMP HRH2 Antagonist; type: cell-based; details: for Emax: read-out: Max response
Method: cAMP Hunter cell lines were expanded from freezer stocks. […] For Gi agonist determination, cells were incubated with sample in the presence of EC80 forskolin to induce response. For both conditions, media was aspirated from cells and replaced with 15 μL 2:1 HBSS/10 mM HEPES:cAMP XS+ Ab reagent. […] 5 μL of 4× sample was added to cells and incubated at 37° C. or room temperature (RT) for 30 or 60 min. Final assay vehicle concentration was 1%. […] Media was aspirated from cells and replaced with 10 μL 1:1 HBSS/HEPES:cAMP XS+ Ab reagent. […] For Gi coupled GPCRs, EC80 forskolin was included. […] Compound activity was analyzed using CBIS data analysis suite (ChemInnovation, CA).

[3] = target: T2, NMDAR (1A/2B) (Homo sapiens, UniProt Q05586+Q13224); experiment: Ion Channel NMDAR (1A/2B) Opener; type: cell-based; details: for Emax: Ion Channel NMDAR (1A/2B) Opener, read-out: Max response
[4] = target: T2, NMDAR (1A/2B); experiment: Ion Channel NMDAR (1A/2B) Blocker; type: cell-based; details: for Emax: Ion Channel NMDAR (1A/2B) Blocker, read-out: Max response
[5] = target: DRD2S (Homo sapiens, UniProt P14416); experiment: cAMP DRD2S Antagonist; details: for Emax: read-out: Max response
Method: In vitro pharmacological profiling of compounds was done against 78 functional assays for 47 common off-targets (30) by Eurofins DiscoverX Corporation (Fremont, CA, USA) using their SAFETYscan E/IC50 ELECT service (Cat Ref 87-1003DR, Safety47 Panel Dose Response). […] Compounds were tested in a range of 10 concentrations, following a 3-fold serial dilution, starting from 10 μM.
cAMP Hunter cell lines were expanded from freezer stocks. Prior to testing, cells were seeded in a total volume of 20 μL into white walled 384-well microplates and incubated at 37° C. cAMP modulation was determined using the DiscoverX HitHunter cAMP XS+ assay. For Gs agonist determination, cells were incubated with sample to induce response. For Gi agonist determination, cells were incubated with sample in the presence of EC80 forskolin to induce response. For both conditions, media was aspirated from cells and replaced with 15 μL 2:1 HBSS/10 mM HEPES:cAMP XS+ Ab reagent. Intermediate dilution of sample stocks was performed to generate 4× sample in assay buffer (containing 4×EC80 forskolin in the case of antagonist determination). 5 μL of 4× sample was added to cells and incubated at 37° C. or room temperature (RT) for 30 or 60 min. Final assay vehicle concentration was 1%. For antagonist determination, cells were pre-incubated with sample followed by agonist challenge at the EC80 concentration. Media was aspirated from cells and replaced with 10 μL 1:1 HBSS/HEPES:cAMP XS+ Ab reagent. 5 μL of 4× compound was added to the cells and incubated at 37° C. or RT for 30 min. 5 μL of 4×EC80 agonist was added to the cells and incubated at 37° C. or RT for 30 or 60 min. For Gi coupled GPCRs, EC80 forskolin was included. […] Microplates were read following signal generation with a PerkinElmer Envision™ instrument for chemiluminescent signal detection. Compound activity was analyzed using CBIS data analysis suite (ChemInnovation, CA).

[6] = Plasma protein binding; type: in vitro ADME; details: pH 7.4, human plasma
Description: In vitro ADME profiling of compounds was done by Eurofins Panlabs Inc (St Charles, MO, USA) using their ADME-Tox service (Cat Ref P375, Tier 1 ADME Panel). […] (28). The atom-based log P calculation method, called OsirisP, uses as an increment system and adds contributions of every atom based on its atom type. The prediction engine distinguishes a total of 368 atom types and was optimized using a training set of more than 5000 molecules with experimentally determined log P values. The free prediction engine has proven to outperform many alternative calculation methods (29).
Human plasma, used as the protein containing matrix, was spiked with the test compound at 10 μM (final solvent concentration of 1% DMSO). The assay was performed in a 96-well format in a dialysis block (Teflon) with the dialysate compartment containing PBS (pH 7.4) and the sample side containing an equal volume of the spiked protein matrix. The plate was incubated at 37° C. for 4 h. After incubation, samples were taken from both compartments, diluted with the phosphate buffer, followed by the addition of acetonitrile and centrifugation. The supernatants were then used for HPLC-MS/MS analysis. Acebutolol, quinidine and warfarin were tested in each assay. The percentage bound to proteins and the recovery were calculated as follows: […]

[7] = target: OPRK1 (Homo sapiens, UniProt P41145); experiment: cAMP OPRK1 Antagonist; details: for Emax: read-out: Max response
Method: In vitro pharmacological profiling of compounds was done against 78 functional assays for 47 common off-targets (30) by Eurofins DiscoverX Corporation (Fremont, CA, USA) using their SAFETYscan E/IC50 ELECT service (Cat Ref 87-1003DR, Safety47 Panel Dose Response). […] Compounds were tested in a range of 10 concentrations, following a 3-fold serial dilution, starting from 10 μM. The assays were performed utilizing the PathHunter enzyme fragment complementation (EFC) technology, FLIPR®-based cellular screening assays, and KINOMEscan kinase binding assays.
cAMP Hunter cell lines were expanded from freezer stocks. Prior to testing, cells were seeded in a total volume of 20 μL into white walled 384-well microplates and incubated at 37° C. cAMP modulation was determined using the DiscoverX HitHunter cAMP XS+ assay. For Gs agonist determination, cells were incubated with sample to induce response. For Gi agonist determination, cells were incubated with sample in the presence of EC80 forskolin to induce response. For both conditions, media was aspirated from cells and replaced with 15 μL 2:1 HBSS/10 mM HEPES:cAMP XS+ Ab reagent. Intermediate dilution of sample stocks was performed to generate 4× sample in assay buffer (containing 4×EC80 forskolin in the case of antagonist determination). 5 μL of 4× sample was added to cells and incubated at 37° C. or room temperature (RT) for 30 or 60 min. Final assay vehicle concentration was 1%. For antagonist determination, cells were pre-incubated with sample followed by agonist challenge at the EC80 concentration. Media was aspirated from cells and replaced with 10 μL 1:1 HBSS/HEPES:cAMP XS+ Ab reagent. 5 μL of 4× compound was added to the cells and incubated at 37° C. or RT for 30 min. 5 μL of 4×EC80 agonist was added to the cells and incubated at 37° C. or RT for 30 or 60 min. For Gi coupled GPCRs, EC80 forskolin was included. […] Microplates were read following signal generation with a PerkinElmer Envision™ instrument for chemiluminescent signal detection. Compound activity was analyzed using CBIS data analysis suite (ChemInnovation, CA). For Gs agonist mode assays, percentage activity was calculated using the following equation:

[8] = target: NAV1.5 (Homo sapiens, UniProt Q14524); experiment: Ion Channel NAV1.5 Blocker; type: cell-based; details: for Emax at 30 min: Ion Channel NAV1.5 Blocker, read-out: Max response
NAV1.5, sequence (Q14524 whole entry): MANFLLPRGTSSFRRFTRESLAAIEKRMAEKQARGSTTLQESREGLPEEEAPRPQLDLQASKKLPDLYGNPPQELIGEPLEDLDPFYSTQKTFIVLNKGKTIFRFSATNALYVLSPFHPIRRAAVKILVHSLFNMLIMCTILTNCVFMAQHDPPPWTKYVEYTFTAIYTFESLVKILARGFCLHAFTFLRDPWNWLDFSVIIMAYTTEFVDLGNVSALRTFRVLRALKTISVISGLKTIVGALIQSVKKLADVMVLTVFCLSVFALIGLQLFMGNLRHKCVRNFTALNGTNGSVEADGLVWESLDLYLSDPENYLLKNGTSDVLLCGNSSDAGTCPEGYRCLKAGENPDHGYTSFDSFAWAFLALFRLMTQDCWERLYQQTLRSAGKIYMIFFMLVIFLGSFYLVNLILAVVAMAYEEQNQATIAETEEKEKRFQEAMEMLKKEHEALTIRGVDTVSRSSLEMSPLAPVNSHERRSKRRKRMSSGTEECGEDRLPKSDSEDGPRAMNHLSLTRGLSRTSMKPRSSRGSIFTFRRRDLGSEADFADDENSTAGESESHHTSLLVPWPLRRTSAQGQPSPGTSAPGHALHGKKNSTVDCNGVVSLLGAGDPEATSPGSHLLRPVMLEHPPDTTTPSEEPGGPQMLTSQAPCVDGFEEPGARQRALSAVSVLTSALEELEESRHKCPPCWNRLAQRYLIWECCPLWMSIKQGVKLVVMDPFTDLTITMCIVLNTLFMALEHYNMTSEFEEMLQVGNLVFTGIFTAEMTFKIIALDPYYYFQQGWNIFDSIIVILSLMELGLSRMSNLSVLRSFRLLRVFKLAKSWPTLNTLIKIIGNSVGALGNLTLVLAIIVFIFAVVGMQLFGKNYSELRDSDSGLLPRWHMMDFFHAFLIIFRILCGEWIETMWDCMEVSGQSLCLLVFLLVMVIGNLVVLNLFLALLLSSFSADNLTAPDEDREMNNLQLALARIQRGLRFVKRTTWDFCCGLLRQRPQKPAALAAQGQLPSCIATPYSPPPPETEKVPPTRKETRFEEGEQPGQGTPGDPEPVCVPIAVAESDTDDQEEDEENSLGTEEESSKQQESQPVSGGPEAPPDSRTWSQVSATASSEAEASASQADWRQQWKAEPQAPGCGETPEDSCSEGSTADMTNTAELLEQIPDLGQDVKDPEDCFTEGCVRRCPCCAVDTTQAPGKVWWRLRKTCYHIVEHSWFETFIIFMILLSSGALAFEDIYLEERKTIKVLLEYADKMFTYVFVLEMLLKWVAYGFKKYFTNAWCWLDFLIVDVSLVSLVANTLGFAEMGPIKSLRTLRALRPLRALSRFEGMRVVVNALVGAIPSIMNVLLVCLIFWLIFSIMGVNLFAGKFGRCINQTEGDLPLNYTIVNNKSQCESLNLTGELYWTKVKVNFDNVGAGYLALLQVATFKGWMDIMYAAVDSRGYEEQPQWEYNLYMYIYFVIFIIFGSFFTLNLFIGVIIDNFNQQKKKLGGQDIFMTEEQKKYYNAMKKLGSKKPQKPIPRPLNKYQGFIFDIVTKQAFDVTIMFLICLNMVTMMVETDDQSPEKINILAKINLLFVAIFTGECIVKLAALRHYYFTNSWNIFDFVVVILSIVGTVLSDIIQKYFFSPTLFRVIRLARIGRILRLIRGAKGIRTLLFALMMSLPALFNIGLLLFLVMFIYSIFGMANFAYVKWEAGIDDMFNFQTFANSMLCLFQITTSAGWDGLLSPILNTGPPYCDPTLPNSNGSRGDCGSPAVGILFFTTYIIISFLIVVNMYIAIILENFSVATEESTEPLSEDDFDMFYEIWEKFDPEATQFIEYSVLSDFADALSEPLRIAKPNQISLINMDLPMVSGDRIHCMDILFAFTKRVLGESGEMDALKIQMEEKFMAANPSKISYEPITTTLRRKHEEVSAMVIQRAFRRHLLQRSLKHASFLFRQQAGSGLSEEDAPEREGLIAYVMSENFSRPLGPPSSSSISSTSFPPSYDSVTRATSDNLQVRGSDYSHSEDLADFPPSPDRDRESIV

OPRK1, sequence (P41145 whole entry): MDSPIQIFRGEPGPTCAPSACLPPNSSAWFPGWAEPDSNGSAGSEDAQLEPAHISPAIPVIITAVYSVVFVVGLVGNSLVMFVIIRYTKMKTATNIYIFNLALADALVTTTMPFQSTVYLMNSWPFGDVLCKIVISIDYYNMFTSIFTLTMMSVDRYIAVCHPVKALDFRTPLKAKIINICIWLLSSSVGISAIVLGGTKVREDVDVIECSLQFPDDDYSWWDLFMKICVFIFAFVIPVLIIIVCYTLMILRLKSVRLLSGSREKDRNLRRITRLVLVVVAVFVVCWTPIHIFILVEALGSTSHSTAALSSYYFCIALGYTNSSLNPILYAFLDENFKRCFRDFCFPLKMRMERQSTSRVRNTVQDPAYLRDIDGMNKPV
HRH2, sequence (P25021 whole entry): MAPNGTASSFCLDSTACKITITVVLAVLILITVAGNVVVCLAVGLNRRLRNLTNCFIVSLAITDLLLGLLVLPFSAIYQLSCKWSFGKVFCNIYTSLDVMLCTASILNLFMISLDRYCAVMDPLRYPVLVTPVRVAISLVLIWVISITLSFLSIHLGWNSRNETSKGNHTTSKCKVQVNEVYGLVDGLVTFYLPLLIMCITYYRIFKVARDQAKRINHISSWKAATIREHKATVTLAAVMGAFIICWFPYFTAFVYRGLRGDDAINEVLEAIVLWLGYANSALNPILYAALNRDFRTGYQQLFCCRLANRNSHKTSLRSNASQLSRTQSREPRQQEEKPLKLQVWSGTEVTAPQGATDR
DRD2S, sequence (P14416 1-414 isoform P14416-2): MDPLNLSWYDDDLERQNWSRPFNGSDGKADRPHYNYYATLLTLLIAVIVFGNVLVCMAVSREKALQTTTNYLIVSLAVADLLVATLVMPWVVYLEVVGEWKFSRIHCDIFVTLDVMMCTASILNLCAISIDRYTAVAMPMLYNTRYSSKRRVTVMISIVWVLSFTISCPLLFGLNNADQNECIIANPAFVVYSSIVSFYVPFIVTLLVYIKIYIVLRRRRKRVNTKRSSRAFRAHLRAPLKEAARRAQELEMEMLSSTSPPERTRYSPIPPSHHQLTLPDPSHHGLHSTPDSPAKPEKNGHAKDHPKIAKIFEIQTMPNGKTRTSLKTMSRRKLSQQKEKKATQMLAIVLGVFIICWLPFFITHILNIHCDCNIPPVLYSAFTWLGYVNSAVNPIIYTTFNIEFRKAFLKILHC
T2 sequence (Q13224 27-1484, other chains not shown): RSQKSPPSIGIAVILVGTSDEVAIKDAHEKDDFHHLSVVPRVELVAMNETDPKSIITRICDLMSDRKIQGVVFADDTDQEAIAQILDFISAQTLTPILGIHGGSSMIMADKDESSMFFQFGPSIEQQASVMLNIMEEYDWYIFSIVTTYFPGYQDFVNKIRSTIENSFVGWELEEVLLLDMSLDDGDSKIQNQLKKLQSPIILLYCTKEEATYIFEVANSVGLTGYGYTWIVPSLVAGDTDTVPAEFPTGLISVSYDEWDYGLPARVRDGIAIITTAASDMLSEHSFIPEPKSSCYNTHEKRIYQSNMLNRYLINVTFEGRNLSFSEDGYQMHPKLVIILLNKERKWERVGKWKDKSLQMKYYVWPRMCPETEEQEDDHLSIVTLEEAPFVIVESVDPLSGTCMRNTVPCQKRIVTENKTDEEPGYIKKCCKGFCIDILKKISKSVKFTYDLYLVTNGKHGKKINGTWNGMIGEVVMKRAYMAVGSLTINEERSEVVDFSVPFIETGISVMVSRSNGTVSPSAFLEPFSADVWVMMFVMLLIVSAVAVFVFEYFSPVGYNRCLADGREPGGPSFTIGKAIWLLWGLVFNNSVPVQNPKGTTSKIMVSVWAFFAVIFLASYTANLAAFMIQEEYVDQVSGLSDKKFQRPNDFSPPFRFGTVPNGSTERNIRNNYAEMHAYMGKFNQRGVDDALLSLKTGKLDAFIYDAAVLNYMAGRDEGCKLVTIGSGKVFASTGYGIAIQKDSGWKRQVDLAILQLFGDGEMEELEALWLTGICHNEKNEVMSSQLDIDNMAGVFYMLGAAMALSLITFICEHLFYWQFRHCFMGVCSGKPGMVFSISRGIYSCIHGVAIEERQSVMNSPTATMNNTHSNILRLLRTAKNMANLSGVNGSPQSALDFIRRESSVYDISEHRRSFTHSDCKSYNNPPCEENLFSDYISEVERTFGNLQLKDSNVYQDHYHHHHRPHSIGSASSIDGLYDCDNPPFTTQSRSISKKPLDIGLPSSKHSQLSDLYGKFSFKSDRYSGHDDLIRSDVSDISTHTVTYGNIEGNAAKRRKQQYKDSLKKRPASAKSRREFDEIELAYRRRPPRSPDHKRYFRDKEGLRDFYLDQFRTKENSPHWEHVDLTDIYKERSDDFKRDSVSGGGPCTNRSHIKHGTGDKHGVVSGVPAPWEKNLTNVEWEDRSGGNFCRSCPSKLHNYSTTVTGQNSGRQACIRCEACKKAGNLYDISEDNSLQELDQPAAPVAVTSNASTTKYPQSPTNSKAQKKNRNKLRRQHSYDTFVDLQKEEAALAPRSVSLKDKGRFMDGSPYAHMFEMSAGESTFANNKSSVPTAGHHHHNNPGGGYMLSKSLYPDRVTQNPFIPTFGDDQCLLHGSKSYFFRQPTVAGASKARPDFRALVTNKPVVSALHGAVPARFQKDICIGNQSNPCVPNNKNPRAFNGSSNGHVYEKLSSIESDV

Compound | IC50 ([1]; Binding ROCK1 Inhibitor) [µM] | Emax [1] [%] | IC50 [2] [µM] | Emax [2] [%] | EC50 [3] [µM] | Emax [3] [%] | IC50 [4] [µM] | Emax [4] [%] | IC50 [5] [µM] | Emax [5] [%] | fraction unbound at 4 h, 10 μM [6] | IC50 [7] [µM] | Emax [7] [%] | IC50 [8] [µM] | Emax at 30 min [8] [%] | Emax ([1]; Binding ROCK1 Inhibitor) [%] | Emax ([2]; cAMP HRH2 Antagonist) [%] | IC50 ([2]; cAMP HRH2 Antagonist, read-out: RC50, result type IC50) [µM]
CC(C)(C)c1ccc(C#CC(O)c2ccccc2)cc1 (racemic) [Compound 3.3, rac-3-(4-(tert-butyl)phenyl)-1-phenylprop-2-yn-1-ol] | > 10 | 0 | > 10 | 2.7 | > 10 | 0 | > 10 | 0 | 7.9 | 63.5 | 0.002 | > 10 | 8.9 | > 10 | 59.9 |  |  | 
Clc1cccc(C#Cc2n[nH]c3ncccc23)c1 [Compound 10.1, 3-((3-chlorophenyl)ethynyl)-1H-pyrazolo[3,4-b]pyridine] | > 10 |  |  |  | > 10 | 0 | > 10 | 0 | > 10 | 0 | 0.0035 | > 10 | 0 | > 10 | 21.5 | 4.2 | 13.9 | > 10
